Measurements: patent publication US8846698B2, “Pyrrolo[2,3-d]pyrimidine tropomysin-related kinase inhibitors” (Pfizer Limited, priority 2011, dated 2014)

What follows are compounds tested against TRKA (Homo sapiens (Human), UniProt P04629) (assay: Isolated TRK enzyme assay (HTRF KinEASE-TK), TRKA). Details: read-out: Trka enzyme (IC50).
Assay type: biochemical

TRKA, sequence (P04629 441-796): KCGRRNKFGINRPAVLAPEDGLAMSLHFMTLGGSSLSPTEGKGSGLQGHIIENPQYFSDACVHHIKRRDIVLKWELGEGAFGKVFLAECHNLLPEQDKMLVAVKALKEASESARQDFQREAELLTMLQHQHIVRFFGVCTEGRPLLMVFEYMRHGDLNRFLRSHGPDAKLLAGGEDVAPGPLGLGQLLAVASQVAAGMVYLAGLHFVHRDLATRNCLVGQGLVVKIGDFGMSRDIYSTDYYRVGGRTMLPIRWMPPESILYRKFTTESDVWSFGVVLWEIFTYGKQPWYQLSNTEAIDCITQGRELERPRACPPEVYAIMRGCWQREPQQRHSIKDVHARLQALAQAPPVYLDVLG

SMILES	IC50 [nM]
CC(C)n1cc(C(=O)c2cncc(NC(=O)c3cnc4[nH]cnc4c3)c2)c2cncnc21 [Example 487, 3H-Imidazo[4,5-b]pyridine-6-carboxylic acid [5-(7-isopropyl-7H-pyrrolo[2,3-d]pyrimidine-5-carbonyl)-pyridin-3-yl]-amide]	9800
CC(C)n1cc(C(=O)c2cncc(NC(=O)c3ccncc3)c2)c2cncnc21 [Example 489, N-[5-(7-Isopropyl-7H-pyrrolo[2,3-d]pyrimidine-5-carbonyl)-pyridin-3-yl]-isonicotinamide]	9800
Cc1cccnc1C(=O)Nc1cncc(C(=O)c2cn(C(C)C)c3ncncc23)c1 [Example 490, 3-Methyl-pyridine-2-carboxylic acid[5-(7-isopropyl-7H-pyrrolo[2,3-d]pyrimidine-5-carbonyl)-pyridin-3-yl]-amide]	9800
CC(C)c1nnc2ccc(C(=O)Nc3cncc(C(=O)c4cn(C(C)C)c5ncncc45)c3)cn12 [Example 492, 3-Isopropyl-1,2,4-triazolo[4,3-a]pyridine-6-carboxylic acid [5-(7-isopropyl-7H-pyrrolo[2,3-d]pyrimidine-5-carbonyl)-pyridin-3-yl]-amide]	1690
CC(C)n1cc(C(=O)c2cncc(NC(=O)c3ncccc3Cl)c2)c2cncnc21 [Example 494, 3-Chloro-pyridine-2-carboxylic acid[5-(7-isopropyl-7H-pyrrolo[2,3-d]pyrimidine-5-carbonyl)-pyridin-3-yl]-amide]	2570
CC(C)n1cc(C(=O)c2cncc(NC(=O)c3cnc4nccn4c3)c2)c2cncnc21 [Example 495, Imidazo[1,2-a]pyrimidine-6-carboxylic acid [5-(7-isopropyl-7H-pyrrolo[2,3-d]pyrimidine-5-carbonyl)-pyridin-3-yl]-amide]	9800
Cc1cc2nnc(C(=O)Nc3cncc(C(=O)c4cn(C(C)C)c5ncncc45)c3)c(C)n2n1 [Example 498]	2340
Cc1ccncc1C(=O)Nc1cncc(C(=O)c2cn(C(C)C)c3ncncc23)c1 [Example 499, N-[5-(7-Isopropyl-7H-pyrrolo[2,3-d]pyrimidine-5-carbonyl)-pyridin-3-yl]-4-methyl-nicotinamide]	9800
CC(C)n1cc(C(=O)c2cncc(NC(=O)c3ccc4nnnn4c3)c2)c2cncnc21 [Example 502, Tetrazolo[1,5-a]pyridine-6-carboxylic acid [5-(7-isopropyl-7H-pyrrolo[2,3-d]pyrimidine-5-carbonyl)-pyridin-3-yl]-amide]	6280
CC(C)n1cc(C(=O)c2cncc(NC(=O)c3ccc4cnnc-4[nH]3)c2)c2cncnc21 [Example 506, Pyrazolo[3,4-b]pyridine-6-carboxylic acid [5-(7-isopropyl-7H-pyrrolo[2,3-d]pyrimidine-5-carbonyl)-pyridin-3-yl]-amide]	67
CC(C)n1cc(C(=O)c2cncc(NC(=O)c3ccnnc3)c2)c2cncnc21 [Example 509, Pyridazine-4-carboxylic acid [5-(7-isopropyl-7H-pyrrolo[2,3-d]pyrimidine-5-carbonyl)-pyridin-3-yl]-amide]	9800
Cc1cc(C(=O)Nc2cncc(C(=O)c3cn(C(C)C)c4ncncc34)c2)n(C)n1 [Example 513, 2,5-Dimethyl-2H-pyrazole-3-carboxylic acid [5-(7-isopropyl-7H-pyrrolo[2,3-d]pyrimidine-5-carbonyl)-pyridin-3-yl]-amide]	1890
CC(C)n1cc(C(=O)c2cncc(NC(=O)c3ccnc4ncsc34)c2)c2cncnc21 [Example 514, Thiazolo[4,5-b]pyridine-7-carboxylic acid [5-(7-isopropyl-7H-pyrrolo[2,3-d]pyrimidine-5-carbonyl)-pyridin-3-yl]-amide]	9800
CC(C)n1cc(C(=O)c2cncc(NC(=O)CN3CCc4cccnc4C3)c2)c2cncnc21 [Example 517, 2-(5,8-Dihydro-6H-[1,7]naphthyridin-7-yl)-N-[5-(7-isopropyl-7H-pyrrolo[2,3-d]pyrimidine-5-carbonyl)-pyridin-3-yl]-acetamide]	4390

Further lines, results first:

IC50 [nM]	SMILES
118	COc1cc(C(=O)Nc2cncc(C(=O)c3cn(C(C)C)c4ncncc34)c2)nc2c(C)nccc12 [Example 483, 4-Methoxy-8-methyl-1,7-naphthyridine-2-carboxylic acid [5-(7-isopropyl-7H-pyrrolo[2,3-d]pyrimidine-5-carbonyl)-pyridin-3-yl]-amide]
192	CCc1nc(C)c(C(=O)Nc2cncc(C(=O)c3cn(C(C)C)c4ncncc34)c2)o1 [Example 484, 2-Ethyl-4-methyl-oxazole-5-carboxylic acid [5-(7-isopropyl-7H-pyrrolo[2,3-d]pyrimidine-5-carbonyl)-pyridin-3-yl]-amide]
20	COc1cncc(C(=O)Nc2cncc(C(=O)c3cn(C(C)C)c4ncncc34)c2)c1 [Example 485, N-[5-(7-Isopropyl-7H-pyrrolo[2,3-d]pyrimidine-5-carbonyl)-pyridin-3-yl]-5-methoxy-nicotinamide]
805	CC(C)n1cc(C(=O)c2cncc(NC(=O)c3cnc4[nH]ncc4c3)c2)c2cncnc21 [Example 486, 1H-Pyrazolo[3,4-b]pyridine-5-carboxylic acid [5-(7-isopropyl-7H-pyrrolo[2,3-d]pyrimidine-5-carbonyl)-pyridin-3-yl]-amide]
64.6	COc1nccn2cc(C(=O)Nc3cncc(C(=O)c4cn(C(C)C)c5ncncc45)c3)nc12 [Example 488, 8-Methoxy-imidazo[1,2-a]pyrazine-2-carboxylic acid [5-(7-isopropyl-7H-pyrrolo[2,3-d]pyrimidine-5-carbonyl)-pyridin-3-yl]-amide]
1410	CC(C)n1cc(C(=O)c2cncc(NC(=O)c3cnc4occc4c3)c2)c2cncnc21 [Example 491, Furo[2,3-b]pyridine-5-carboxylic acid [5-(7-isopropyl-7H-pyrrolo[2,3-d]pyrimidine-5-carbonyl)-pyridin-3-yl]-amide]
848	CC(C)n1cc(C(=O)c2cncc(NC(=O)c3cocn3)c2)c2cncnc21 [Example 493, Oxazole-4-carboxylic acid [5-(7-isopropyl-7H-pyrrolo[2,3-d]pyrimidine-5-carbonyl)-pyridin-3-yl]-amide]
199	CC(C)n1cc(C(=O)c2cncc(NC(=O)c3cc(C4CC4)on3)c2)c2cncnc21 [Example 496, 5-Cyclopropyl-isoxazole-3-carboxylic acid [5-(7-isopropyl-7H-pyrrolo[2,3-d]pyrimidine-5-carbonyl)-pyridin-3-yl]-amide]
43.5	CC(C)n1cc(C(=O)c2cncc(NC(=O)c3cc(C4CC4)n[nH]3)c2)c2cncnc21 [Example 497, 5-Cyclopropyl-2H-pyrazole-3-carboxylic acid [5-(7-isopropyl-7H-pyrrolo[2,3-d]pyrimidine-5-carbonyl)-pyridin-3-yl]-amide]
25.8	CC(C)n1cc(C(=O)c2cncc(NC(=O)c3cn(C4CCC4)cn3)c2)c2cncnc21 [Example 500, 1-Cyclobutyl-1H-imidazole-4-carboxylic acid [5-(7-isopropyl-7H-pyrrolo[2,3-d]pyrimidine-5-carbonyl)-pyridin-3-yl]-amide]
201	CC(C)n1cc(C(=O)c2cncc(NC(=O)c3cc4ccccn4n3)c2)c2cncnc21 [Example 501, Pyrazolo[1,5-a]pyridine-2-carboxylic acid [5-(7-isopropyl-7H-pyrrolo[2,3-d]pyrimidine-5-carbonyl)-pyridin-3-yl]-amide]
963	CC(C)n1cc(C(=O)c2cncc(NC(=O)c3nnc4n3CCCC4)c2)c2cncnc21 [Example 503, 5,6,7,8-Tetrahydro-1,2,4-triazolo[4,3-a]pyridine-3-carboxylic acid [5-(7-isopropyl-7H-pyrrolo[2,3-d]pyrimidine-5-carbonyl)-pyridin-3-yl]-amide]
1020	Cc1nc(C(=O)Nc2cncc(C(=O)c3cn(C(C)C)c4ncncc34)c2)c(C(F)(F)F)o1 [Example 504, 2-Methyl-5-trifluoromethyl-oxazole-4-carboxylic acid [5-(7-isopropyl-7H-pyrrolo[2,3-d]pyrimidine-5-carbonyl)-pyridin-3-yl]-amide]
1630	CC(C)n1cc(C(=O)c2cncc(NC(=O)c3cnc4cc[nH]c4c3)c2)c2cncnc21 [Example 505, 1H-Pyrrolo[3,2-b]pyridine-6-carboxylic acid [5-(7-isopropyl-7H-pyrrolo[2,3-d]pyrimidine-5-carbonyl)-pyridin-3-yl]-amide]
5.45	CC(C)n1cc(C(=O)c2cncc(NC(=O)c3[nH]nc4ccccc34)c2)c2cncnc21 [Example 507, 2H-Indazole-3-carboxylic acid [5-(7-isopropyl-7H-pyrrolo[2,3-d]pyrimidine-5-carbonyl)-pyridin-3-yl]-amide]
1630	Cc1noc2ncc(C(=O)Nc3cncc(C(=O)c4cn(C(C)C)c5ncncc45)c3)cc12 [Example 508, 3-Methyl-isoxazolo[5,4-b]pyridine-5-carboxylic acid [5-(7-isopropyl-7H-pyrrolo[2,3-d]pyrimidine-5-carbonyl)-pyridin-3-yl]-amide]
249	CC(C)n1cc(C(=O)c2cncc(NC(=O)c3cc4c(cn3)OCCO4)c2)c2cncnc21 [Example 510, 2,3-Dihydro-1,4-dioxino[2,3-c]pyridine-7-carboxylic acid [5-(7-isopropyl-7H-pyrrolo[2,3-d]pyrimidine-5-carbonyl)-pyridin-3-yl]-amide]
144	CC(C)n1cc(C(=O)c2cncc(NC(=O)c3n[nH]c4ncccc34)c2)c2cncnc21 [Example 511, 1H-Pyrazolo[3,4-b]pyridine-3-carboxylic acid [5-(7-isopropyl-7H-pyrrolo[2,3-d]pyrimidine-5-carbonyl)-pyridin-3-yl]-amide]
12.6	CC(C)n1cc(C(=O)c2cncc(NC(=O)c3n[nH]c4ccc(F)cc34)c2)c2cncnc21 [Example 512, 5-Fluoro-1H-indazole-3-carboxylic acid [5-(7-isopropyl-7H-pyrrolo[2,3-d]pyrimidine-5-carbonyl)-pyridin-3-yl]-amide]
1140	CC(C)n1cc(C(=O)c2cncc(NC(=O)c3cn4nc(Cl)ccc4n3)c2)c2cncnc21 [Example 515, 6-Chloro-imidazo[1,2-b]pyridazine-2-carboxylic acid [5-(7-isopropyl-7H-pyrrolo[2,3-d]pyrimidine-5-carbonyl)-pyridin-3-yl]-amide]
